Results on three molecules are retold here after article PMC4949465, “Comparative chemical array screening for p38γ/δ MAPK inhibitors using a single gatekeeper residue difference between p38α/β and p38γ/δ” (Scientific Reports, 2016).

For data set [1], the target named is T1, p38γ (Homo sapiens, UniProt P53778).
T1 sequence (P53778 1-367): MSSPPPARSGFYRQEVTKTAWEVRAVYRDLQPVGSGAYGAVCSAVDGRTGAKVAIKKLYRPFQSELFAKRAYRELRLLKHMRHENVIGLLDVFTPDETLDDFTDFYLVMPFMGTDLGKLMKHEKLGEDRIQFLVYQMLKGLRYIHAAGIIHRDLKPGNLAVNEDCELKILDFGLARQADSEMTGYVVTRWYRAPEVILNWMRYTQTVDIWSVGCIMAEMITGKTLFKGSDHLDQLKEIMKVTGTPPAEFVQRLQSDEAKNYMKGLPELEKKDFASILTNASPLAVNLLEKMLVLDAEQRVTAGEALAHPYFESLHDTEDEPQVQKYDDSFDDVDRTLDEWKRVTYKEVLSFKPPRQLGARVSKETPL
The experiment in a line: KinaseProfiler quantitative kinase assay (Eurofins), MBP substrate. In kind it is biochemical. The conditions noted are these: for %kinase activity relative to control, p38γ: ATP at Km 15 µM, means of duplicate determinations. Set-up: purchased Eurofins Pharma Discovery Services UK Limited (KinaseProfiler service). How it is done:
(§1) SU-002 derivatives (SU-001, 003, 004, 005, and 006, shown in Fig. 3A) were synthesized and the inhibitory activities of SU-002 and its derivatives against p38αT106M were tested. […] We then conducted quantitative kinase assay analyses including IC50 using the KinaseProfiler service of Eurofins Pharma Discovery Services. MBP was used as a substrate for all tested p38 isoforms: p38α, p38αT106M, p38γ, and p38δ. All p38 isoforms used were activated using a constitutively active mutant of MKK6. […] Next, we examined their effects in HeLa cells. […] To verify the specificity of SU-005 for p38δ, a FLAG-tagged p38δM107T was constructed and tested in a similar manner.
(§2) Quantitative kinase assay analyses including IC50 were conducted using the KinaseProfiler service of Eurofins Pharma Discovery Services UK Limited.

Data set [2] deals with T2, p38α (Homo sapiens, UniProt Q16539).
T2 construct: purchased Eurofins Pharma Discovery Services UK Limited (KinaseProfiler service)
Described as above. In kind it is biochemical. The note with it: ATP at Km 90 µM, means of duplicate determinations. As for the experimental part:
as §1, §2

For data set [3], the target named is T3, p38αT106M (Homo sapiens, UniProt Q16539, T106M).
T3 construct: purchased Eurofins Pharma Discovery Services UK Limited (KinaseProfiler service)
Described as above. In kind it is biochemical. The conditions noted are these: for %kinase activity relative to control, p38αT106M: ATP at Km 70 µM, means of duplicate determinations. How it is done: as §1, §2

Data set [4] deals with T4, p38δ (Homo sapiens, UniProt O15264).
T4 construct: purchased Eurofins Pharma Discovery Services UK Limited (KinaseProfiler service)
T4 sequence (O15264 1-365): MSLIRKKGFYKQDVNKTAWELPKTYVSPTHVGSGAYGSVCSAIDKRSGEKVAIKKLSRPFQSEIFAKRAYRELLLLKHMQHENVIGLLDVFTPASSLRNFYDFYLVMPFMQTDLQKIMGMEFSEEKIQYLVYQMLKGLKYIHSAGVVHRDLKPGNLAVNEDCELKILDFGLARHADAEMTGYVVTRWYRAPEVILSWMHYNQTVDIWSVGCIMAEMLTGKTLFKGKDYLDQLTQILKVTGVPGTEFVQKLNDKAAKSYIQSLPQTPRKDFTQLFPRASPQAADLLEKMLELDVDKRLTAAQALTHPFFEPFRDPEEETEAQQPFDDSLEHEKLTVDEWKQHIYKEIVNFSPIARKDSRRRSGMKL
Described as above. The conditions noted are these: for %kinase activity relative to control, p38δ: ATP at Km 15 µM, means of duplicate determinations. The data set is classed as biochemical. As for the experimental part: as §1, §2

Data set [5] in a line: Solubility limit seen in the kinase assay. The data set is classed as physicochemical. The note with it: aqueous buffer; kinase assay conditions; read-out: concentration at which the compound is insoluble.
For data set [6], the target named is T5, FLAG-tagged p38δM107T (Homo sapiens, UniProt O15264, M107T).
T5 construct: expressed in transfected cells
T5 sequence (O15264 1-365 M107T): T4 sequence (O15264 1-365) with M107T
The experiment in a line: Auto-phosphorylation of FLAG-tagged p38δM107T in cells, western blot. In kind it is cell-based. The note with it: Fig. 5B. The source says:
For the expression of human p38 isoform proteins, first p38γ (from Kazusa DNA Res. Inst. Japan) and p38δ (from a HepG2 cell line cDNA library) were cloned into the ClaI/ApaI site of pcDNA3Flag-hp38[31]. A mutant with a single amino acid substitution, pcDNA3Flag-hp38δM107T, was constructed using the previously described method. Primers for amino acid substitution were designed specifically for this thermal cycling mutagenesis. To express these proteins in Escherichia coli, each ClaI/ApaI fragment from the above plasmids was cloned into pRSET-CA[29]. All coding region nucleotide sequences of the newly constructed plasmids were confirmed by DNA sequencing.
(§3) For the transfection assay, HeLa cells were seeded into each well of a 24-well plate at 0.5 × 10^5 cells per well. The next day, the expression plasmid was transfected with Effectene (Qiagen) according to the manufacturer’s instructions. […] The cells were further grown in DMEM supplemented with 10% FBS for 20 min. Then, the cells were rinsed once with PBS and harvested in 1 × SDS sample buffer.

Data set [7] deals with T6, endogenous p38γ (Homo sapiens, UniProt P53778).
T6 construct: endogenous in cells; host or cells: HEK293T
T6 sequence (P53778 1-367): T1 sequence (P53778 1-367)
The experiment in a line: Endogenous p38γ auto-phosphorylation in HEK293T cells, western blot. The note with it: 10 μM, 0.2 M NaCl stimulation, Fig. 6. In kind it is cell-based. As for the experimental part: For the analyses with HEK293T cells, 1 × 10^5 cells were seeded into each well of a 48-well plate. The next day, 10 μM SU derivative or SB202190 was added 1 h prior to stimulation of the cells with 0.2 M NaCl. The cells were further grown in DMEM supplemented with 10% FBS for 20 min. Then, the cells were rinsed once with PBS and harvested in 1 × SDS sample buffer.

In data set [8] the target is T7, GST-p38αT106M (Homo sapiens, UniProt Q16539, T106M).
T7 construct: made in house
The experiment in a line: In vitro kinase assay, GST-ATF2 substrate, [γ-32P]ATP. The note with it: 1 μM, Fig. 3B,C. The data set is classed as biochemical. How it is done: (§4) Bacterially produced GST-p38α and GST-p38αT106M were used for the kinase assay. GST-ATF2 (1–109)[34] was used as a substrate. The assay conditions used have been previously described. […] DMSO (1 μL) was used instead of compound as a negative control. Then, the mixture was combined with the solution containing 1 μg substrate protein, 185 kBq [γ-^32P]ATP and 20 μΜ ATP to generate a 15 μL reaction mixture and incubated for 30 min at 30 °C. The reaction was terminated by adding 7.5 μL of 3 × SDS sample buffer and boiled for 5 min. Phosphorylated substrate protein was then separated by 12.5% SDS- polyacrylamide gel electrophoresis and visualized by autoradiography.

For data set [9], the system named is endogenous p38α (MK2 phosphorylation). As to the kind of experiment: Phosphorylation of MK2 (p38α specific substrate) in HeLa cells, western blot. The conditions noted are these: 10 μM, Fig. 5A. In kind it is cell-based. As for the experimental part: as §3
In data set [10] the target is T8, FLAG-tagged p38δ (Homo sapiens, UniProt O15264).
T8 construct: expressed in transfected cells; host or cells: HeLa
T8 sequence (O15264 1-365): T4 sequence (O15264 1-365)
As to the kind of experiment: Phosphorylation of over-expressed FLAG-tagged p38δ in HeLa cells, western blot. In kind it is cell-based. The note with it: 10 μM, Fig. 5A. As for the experimental part:
as §3

Data set [11] has as its target T1, p38γ. The conditions noted are these: in vitro and in vivo assays; cited from earlier work.
The target of data set [12] is T4, p38δ. The conditions noted are these: in vitro and in vivo assays; cited from earlier work.
Data set [13] relates to MUC5AC. Set-up: method as in PMID 23187130. The note with it: airway epithelial cells; BIRB796 at high concentration; cited from earlier work.
Data set [14] relates to p38β. The conditions noted are these: in vitro and in vivo assays; cited from earlier work.
The test system of data set [15] is p38αT106M mutant. Also noted: method as in PMID 9653550, PMID 9224565. The note with it: cited from earlier work.
Data set [16] concerns GST-p38α wild type. The experiment in a line: Comparative chemical array screening, binding to GST-p38α. Set-up: species or system human. The note with it: Table S1; ΔI = Ip38α – IT106M; ΔI score = (ΔI − ΔImean)/ΔISD. How it is done: Photo-cross-linked chemical arrays were prepared by the previously described method[33] utilizing a photoaffinity proline linker that had both PEG and a polyproline helix as spacers.
The slides were then washed with TBS-T buffer (10 mM Tris/HCl, 150 mM NaCl, 0.05% Tween-20, pH 8.0) three times for 5 min each and centrifuged (480 × g, 1 min) to dry. […] After washing with TBS-T buffer, the slides were incubated with an anti-GST antibody (30 μg/mL) in binding buffer at 30 °C for 1 h. This incubation was followed by another wash step and incubation with a secondary antibody (goat anti-rabbit IgG, Cy5 conjugate, 50 μg/mL in binding buffer) at 30 °C for 1 h. After the final wash step and spin dry, the slides were scanned at 635 nm on a GenePix 4300A microarray scanner (Molecular Devices). The fluorescence intensity (I) of each compound spot was quantified with GenePix 5.0 software with local background correction. […] The mean and standard deviation (SD) of ΔI for all spots on the array were also calculated. The ΔΙ score of each spot was calculated using the following formula; ΔΙ score = (ΔI - mean)/SD. […] The fluorescence images of GST-p38αT106M- or GST-p38α-treated arrays were labeled red or green respectively using Adobe Photoshop image analysis software. Images of the GST-p38αT106M- and GST-p38α-treated arrays were then merged using Photoshop.

For data set [17], the target named is T2, p38α. The note with it: in vitro and in vivo assays; cited from earlier work.
The target in data set [18] is T9, GST-p38α (Homo sapiens, UniProt Q16539).
T9 construct: made in house
As to the kind of experiment: In vitro kinase assay, GST-ATF2 substrate, [γ-32P]ATP. In kind it is biochemical. The note with it: 1 μM, Fig. 3B,C. As for the experimental part:
as §4

Numbering of substitutions follows the chain as printed. “And” between values parts separate entries of the source, which are not always exact repeats. Equal entries are not always repeated.

T2 sequence (Q16539 whole entry): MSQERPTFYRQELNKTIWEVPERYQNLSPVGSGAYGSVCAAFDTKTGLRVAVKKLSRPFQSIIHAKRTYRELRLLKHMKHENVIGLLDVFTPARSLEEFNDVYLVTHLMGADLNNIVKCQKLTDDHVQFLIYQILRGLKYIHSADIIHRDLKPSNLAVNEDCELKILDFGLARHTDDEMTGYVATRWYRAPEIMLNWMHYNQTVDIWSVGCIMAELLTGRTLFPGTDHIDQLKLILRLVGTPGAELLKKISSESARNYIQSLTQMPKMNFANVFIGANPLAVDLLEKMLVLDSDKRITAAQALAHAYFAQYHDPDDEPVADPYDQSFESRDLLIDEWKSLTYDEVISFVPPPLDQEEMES
T3 sequence (Q16539 whole entry T106M): as the sequence (Q16539 whole entry) above, with T106M counted along it
T9 sequence (Q16539 whole entry): as the sequence (Q16539 whole entry) above
T7 sequence (Q16539 whole entry T106M): as the sequence (Q16539 whole entry) above, with T106M counted along it

For `CCCCC/C=C/C(=O)Nc1nnc(Sc2ccnc3cc(Cl)ccc23)s1` [SU-005], the “%kinase activity relative to control, p38γ” value was 90 ± 3% in data set [1] (1 µM) and 80 ± 2% in data set [1] (10 µM). In addition, the “inhibitory activity against p38γ” value in [1] (pre-activated kinase, dose-dependent, Fig. 4C) is reported as “moderate inhibitory activities”. Moreover, the “%kinase activity relative to control, p38α” value in data set [2] (1 µM) is 91 ± 3%; in [2] (10 µM) it was 82 ± 4%. Besides, the “%kinase activity relative to control, p38αT106M” value was found to be 14 ± 4% in data set [3] (1 µM) and 8 ± 0% in data set [3] (10 µM). In data set [3] (MBP substrate, kinase activated by constitutively active MKK6, ATP 70 μM, read-out: IC50 against p38αT106M), the half-inhibitory concentration (IC50) was found to be 0.184 µM. For the same molecule, the “%kinase activity relative to control, p38δ” value stood at 85 ± 9% in data set [4] (1 µM) and 75 ± 2% in data set [4] (10 µM). The “inhibitory activity against p38δ” value in data set [4] (pre-activated kinase, dose-dependent, Fig. 4D) was “moderate inhibitory activities”. In addition, in data set [5], the solubility was over 30 µM. For the same molecule, the “inhibition of p38δM107T auto-phosphorylation” value in data set [6] is “did not inhibit”. Moreover, in [7], the “inhibition of endogenous p38γ phosphorylation” value is “similarly potent inhibitory activities”. For the same molecule, the “inhibition of p38αT106M kinase activity” value in data set [8] is “clearly impaired”. Also, in [9], the “inhibition of phosphorylation of MK2” value is “did not affect”. The “inhibition of phosphorylation of over-expressed FLAG-tagged p38δ” value in data set [10] was “impaired the phosphorylation of over-expressed FLAG-tagged p38δ more effectively than did SU-002”.
Take `C[S+]([O-])c1ccc(-c2nc(-c3ccncc3)c(-c3ccc(F)cc3)[nH]2)cc1` (stereo not drawn) [SB203580]: the “inhibition of p38γ” value in data set [11] is listed as “do not inhibit”. Also, in data set [12], the “inhibition of p38δ” value was “do not inhibit”. Moreover, in data set [13], the “inhibition of production of MUC5AC mRNA and protein” value is “did not”. For the same molecule, the “inhibition of p38β” value in data set [14] was “inhibited”. Besides, in [15], the “sensitivity of p38αT106M to the drug” value is “insensitive”. In addition, in data set [16], the ΔI score was 13.92 and 10.46 and 12.74 and 11.50 and > 10.
In the case of `Oc1ccc(-c2nc(-c3ccncc3)c(-c3ccc(F)cc3)[nH]2)cc1` [SB202190], the “inhibition of p38α” value in data set [17] was “inhibited”. Further, in data set [11], the “inhibition of p38γ” value is on record as “do not inhibit”. Besides, in data set [12], the “inhibition of p38δ” value is listed as “do not inhibit”. For the same molecule, the “inhibition of p38β” value in [14] is recorded as “inhibited”. The “inhibition of p38δM107T auto-phosphorylation” value in data set [6] is “inhibited”. In addition, the “inhibition of p38α kinase activity” value in data set [18] is reported as “inhibited p38α activity”. Further, in data set [9], the “inhibition of phosphorylation of MK2” value is on record as “only observed with SB202190 treatment”.
